Test results taken from paper PMC6150237, “Study of Absorption Characteristics of the Total Saponins from Radix Ilicis Pubescentis in an In Situ Single-Pass Intestinal Perfusion (SPIP) Rat Model by Using Ultra Performance Liquid Chromatography (UPLC)” (Molecules : A Journal of Synthetic Chemistry and Natural …, 2017).

Tests used:
rat duodenum = assay: SPIP of MDQ-TS with or without EDTA (tight junction modulator); type: in vivo; conditions: MDQ-TS 2.5 mg/mL, EDTA 2.5 mmol·L^−1
Experimental: (§1) MDQ-TS perfusion samples at low, middle, and high concentration levels of 1.25, 2.5, and 5.0 mg·mL^−1 were prepared by separately dissolving MDQ-TS in the minimum amount of DMSO and diluted with K-R buffer solution. The amount of DMSO was 0.5% in the final perfusion solutions. C1, C2, C3, C4, DC1, and DC2 perfusion samples with the concentration equivalent to the amount contained in 2.5 mg·mL^−1 of MDQ-TS were individually prepared in the same way. Verapamil, amantadine and EDTA were directly dissolved in the MDQ-TS perfusate with terminal concentrations of 200 μmol·L^−1, 2.5 mmol·L^−1, and 2.5 mmol·L^−1, accordingly, and used for investigating the mechanisms involved for absorption.
(§2) In situ single-pass intestinal perfusion (SPIP) studies were performed using an experimental design adapted from the literature with some modifications. Briefly, male Sprague-Dawley rats weighing 180–220 g were acclimatized for at least one week before the experiment, and fasted for 18 h with free access to water before the perfusion experiment. Rats were anesthetized with an intraperitoneal injection of urethane (30 mg·kg^−1 body weight), and kept on a homeothermic blanket to maintain normal body temperature. The abdomen was opened with a midline longitudinal incision, and three segments of rat intestine (duodenum, jejunum, and ileum) of approximately 10 cm each were carefully cannulated on two ends with plastic tubing. Initially, the perfusion solution free of drug (37 °C) was pumped by peristaltic pump (BT100-1F, Longer Pump Co., Baoding, China) through the cannulated segments at a flow rate of 1 mL/min for approximately 30 min in order to clean out any residual debris. Secondly, the perfusion solution containing a known concentration of substance (C1, C2, C3, C4, DC1, DC2, and MDQ-TS) was perfused at 37 °C through the intestinal lumen at a constant flow rate of 0.2 mL/min. The first 20 min of period corresponds to steady state, i.e., when the substance is in equilibrium with the intestinal membrane. After steady state, samples were collected from distal portion of duodenum, jejunum and ileum at 10 min intervals (0–10, 10–20, 20–30, 30–40, 40–50, 50–60 min) in pre-weighted vials. Samples were immediately frozen at −20 °C until analysis by validated UPLC. During the experiment, care was taken to avoid disturbance of the circulatory system and the exposed segment was covered with a piece of sterilized gauze to keep it warm and moist by frequent application of warm (37 °C) saline. The intestinum tenue maintained its viability and intact state without disrupting the blood supply throughout the experimental period. Finally, animals were sacrificed after depth anesthesia by intraperitoneal injection of urethane, according to protocols for euthanasia in experimental animals. After death, the intestinal segment was removed for measurements of length and inside diameter.
The net water flux in the in situ perfusion studies (water absorption and efflux in the intestinal segment) was determined by gravimetric method. The effective absorption rate constant (Ka) and effective apparent permeability (Papp) of compounds in the intestinal segments were calculated according to the following mathematical expression:(1) Ka=(1−CoutQout/CinQin)Q/V (2) Papp=−Qln(CoutQout/CinQin)/2πrl where Cin and Cout are the concentration of test drug in the effluent perfusate through the inlet and outlet tube (μg·mL^−1), respectively. Qin and Qout represent the inlet and outlet volume of effluent perfusate (mL), respectively. Q is the volume flow rate of perfusion (mL·h^−1). V is the volume of the intestinal segment concerned (mL). 2πrl is the area of the mass transfer surface of intestinal segment concerned (cm^2). […]

[1] = test system: rat small intestine (duodenum, jejunum, ileum); assay: In situ single-pass intestinal perfusion (SPIP), saponins administrated in MDQ-TS form; type: in vivo
Experimental: as §1, §2
The net water flux in the in situ perfusion studies (water absorption and efflux in the intestinal segment) was determined by gravimetric method. The effective absorption rate constant (Ka) and effective apparent permeability (Papp) of compounds in the intestinal segments were calculated according to the following mathematical expression:(1) Ka=(1−CoutQout/CinQin)Q/V (2) Papp=−Qln(CoutQout/CinQin)/2πrl where Cin and Cout are the concentration of test drug in the effluent perfusate through the inlet and outlet tube (μg·mL^−1), respectively. Qin and Qout represent the inlet and outlet volume of effluent perfusate (mL), respectively. Q is the volume flow rate of perfusion (mL·h^−1). V is the volume of the intestinal segment concerned (mL). 2πrl is the area of the mass transfer surface of intestinal segment concerned (cm^2).

[2] = Stability in outflow perfusate matrix; type: physicochemical; conditions: 37 °C
Experimental: The chromatographic method was validated for specificity, linearity and LOQ, accuracy and precision, extraction recovery, matrix, and stability. The validation parameters were studied using drug-free (blank) intestinal perfusate mixture that had passed through intestinal segments, and had been collected from five different rats. Specificity was evaluated by analyzing the intestinal perfusion blank and perfusion blank spiked with analytes to investigate the potential interferences of intestinal perfusate endogenous with the analytes; calibration and quality control (QC) samples were obtained by spiking mixed working standard solution in blank intestinal perfusion buffer. Calibration curves were constructed in the range of 20–1000 μg·mL^−1 for C1 (20, 40, 100, 200, 400, and 1000 μg·mL^−1), and 8.0–400.0 μg·mL^−1 for C2, C3, C4, DC1 and DC2 (8.0, 16.0, 40.0, 80.0, 160.0, and 400.0 μg·mL^−1). A weighted (1/x^2) linear least-squares linear regression method was used to determine the slope, intercept, and correlation coefficient; LOQ was determined by injection a series of standard solutions until the signal-to-noise (S/N) ratio was 10; Precision and accuracy were assessed at low, medium, and high concentration levels (40, 200, and 800 μg·mL^−1 for C1; 16, 80, and 320 μg·mL^−1 for C2, C3, C4, DC1, and DC2). Intra-day data was obtained by assaying six replicates at each concentration level in a day, and inter-day data was determined by analyzing QC samples in duplicates during three separate and successive days; The extraction recovery of the six analytes and IS from the outflow perfusate matrix was determined by comparing the mean peak areas of six replicates processed QC samples at each concentration level spiked before extraciton with those from outflow perfusate spiked after extraction; Matrix effect was assessed by comparing the mean peak areas of six replicates at each concentration level dissolved in the post-extracted intestinal perfusate matrix with those of neat standards (C1, C2, C3, C4, DC1, DC2, and IS) spiked in methanol at corresponding concentration levels; Stabilities of C1, C2, C3, C4, DC1, and DC2 in outflow perfusate matrix (12 h, 37 °C), processed samples (auto-sampler condition for 24 h), after freeze-thaw cycle and long-term cold storage (−20 °C, 14 days) were assayed by QC samples in six replicates at three concentration level.

[3] = MDQ-TS form 1.25 mg·mL^−1, duodenum, n = 5
[4] = MDQ-TS form 1.25 mg·mL^−1, ileum, n = 5
[5] = MDQ-TS form 1.25 mg·mL^−1, jejunum, n = 5
[6] = MDQ-TS form 2.5 mg·mL^−1, duodenum, n = 5
[7] = MDQ-TS form 2.5 mg·mL^−1, ileum, n = 5
[8] = MDQ-TS form 2.5 mg·mL^−1, jejunum, n = 5
[9] = MDQ-TS form 5.0 mg·mL^−1, duodenum, n = 5
[10] = MDQ-TS form 5.0 mg·mL^−1, ileum, n = 5
[11] = MDQ-TS form 5.0 mg·mL^−1, jejunum, n = 5
[12] = administrated in MDQ-TS form, summary bound (except DC2 in 1.25 mg·mL^−1 MDQ-TS group)

| SMILES | Ka increase in comparison with non-EDTA added group (rat duodenum) [fold] | Papp increase in comparison with non-EDTA added group (rat duodenum) | Ka [1, 3] | Ka [1, 4] | Ka [1, 5] | Ka [1, 6] | Ka [1, 7] | Ka [1, 8] | Ka [1, 9] | Ka [1, 10] | Ka [1, 11] | stability in outflow perfusate matrix [2] | Papp [1, 3] | Papp [1, 4] | Papp [1, 5] | Papp [1, 6] | Papp [1, 7] | Papp [1, 8] | Papp [1, 9] | Papp [1, 10] | also measured |
| --- | --- | --- | --- | --- | --- | --- | --- | --- | --- | --- | --- | --- | --- | --- | --- | --- | --- | --- | --- | --- | --- |
| C[C@@H]1CC[C@]2(C(=O)O)CC[C@]3(C)C(=CC[C@@H]4[C@@]5(C)CC[C@H](O)[C@@](C)(C(=O)O)[C@@H]5CC[C@]43C)[C@@H]2[C@]1(C)O [C1, ilexgenin A] | ~1.6 | about 1.7 fold | 1.86 ± 0.73 ×10^−2 min^−1 | 0.89 ± 0.08 ×10^−2 min^−1 | 0.95 ± 0.28 ×10^−2 min^−1 | 1.70 ± 0.31 ×10^−2 min^−1 | 2.90 ± 0.37 ×10^−2 min^−1 | 2.23 ± 0.39 ×10^−2 min^−1 | 1.68 ± 0.74 ×10^−2 min^−1 | 1.48 ± 0.76 ×10^−2 min^−1 | 2.30 ± 1.24 ×10^−2 min^−1 | at least 12 h | – | – | – | – | – | – | – | – | – |
| CC1CCC2(C(=O)OC3OC(CO)C(O)C(O)C3O)CCC3(C)C(=CCC4C5(C)CCC(O)C(C)(C(=O)O)C5CCC43C)C2C1(C)O (centres unmarked) [C2, ilexsaponin A1] | ~1.6 | ~1.2 fold | 1.10 ± 0.40 ×10^−2 min^−1 | 1.61 ± 0.37 ×10^−2 min^−1 | 0.74 ± 0.25 ×10^−2 min^−1 | 0.85 ± 0.20 ×10^−2 min^−1 | 1.89 ± 0.35 ×10^−2 min^−1 | 0.68 ± 0.18 ×10^−2 min^−1 | 1.13 ± 0.62 ×10^−2 min^−1 | 0.85 ± 0.27 ×10^−2 min^−1 | 1.21 ± 0.51 ×10^−2 min^−1 | at least 12 h | – | – | – | – | – | – | – | – | – |
| C[C@H]1CC[C@]2(C(=O)O)CC[C@]3(C)C(=CC[C@@H]4[C@@]5(C)CC[C@H](O[C@@H]6OC[C@@H](O)[C@H](O)[C@H]6O[C@@H]6O[C@H](CO)[C@@H](O)[C@H](O)[C@H]6O)C(C)(C)[C@@H]5CC[C@]43C)[C@@H]2[C@]1(C)O [C3, ilexsaponin B1] | ~1.5 | ~1.9 fold | 1.16 ± 0.26 ×10^−2 min^−1 | 1.04 ± 0.11 ×10^−2 min^−1 | 0.94 ± 0.12 ×10^−2 min^−1 | 2.19 ± 0.52 ×10^−2 min^−1 | 3.77 ± 0.41 ×10^−2 min^−1 | 3.82 ± 0.49 ×10^−2 min^−1 | 1.80 ± 0.97 ×10^−2 min^−1 | 1.66 ± 0.95 ×10^−2 min^−1 | 2.48 ± 0.86 ×10^−2 min^−1 | at least 12 h | 0.24 ± 0.10 ×10^−2 cm·min^−1 | 0.18 ± 0.01 ×10^−2 cm·min^−1 | 0.17 ± 0.04 ×10^−2 cm·min^−1 | 0.36 ± 0.06 ×10^−2 cm·min^−1 | 0.42 ± 0.03 ×10^−2 cm·min^−1 | 0.40 ± 0.13 ×10^−2 cm·min^−1 | 0.39 ± 0.24 ×10^−2 cm·min^−1 | 0.29 ± 0.15 ×10^−2 cm·min^−1 | Papp [1, 11]: 0.40 ± 0.24 ×10^−2 cm·min^−1; Papp [1, 12]: > 0.0012 cm/min |
| C[C@@H]1O[C@@H](O[C@H]2[C@H](O[C@H]3[C@H](O[C@H]4CC[C@]5(C)[C@H]6CC=C7[C@H]8[C@](C(=O)O)(CC[C@H](C)[C@@]8(C)O)CC[C@@]7(C)[C@]6(C)CC[C@H]5C4(C)C)OC[C@@H](O)[C@@H]3O)O[C@H](CO)[C@@H](O)[C@@H]2O)[C@H](O)[C@H](O)[C@H]1O [C4, ilexsaponin B2] | ~1.5 | ~1.5 fold | 1.04 ± 0.31 ×10^−2 min^−1 | 0.83 ± 0.28 ×10^−2 min^−1 | 0.84 ± 0.47 ×10^−2 min^−1 | 1.94 ± 0.50 ×10^−2 min^−1 | 2.53 ± 0.29 ×10^−2 min^−1 | 3.19 ± 0.56 ×10^−2 min^−1 | 1.87 ± 0.86 ×10^−2 min^−1 | 1.52 ± 0.92 ×10^−2 min^−1 | 1.92 ± 0.61 ×10^−2 min^−1 | at least 12 h | 0.20 ± 0.09 ×10^−2 cm·min^−1 | 0.14 ± 0.04 ×10^−2 cm·min^−1 | 0.14 ± 0.05 ×10^−2 cm·min^−1 | 0.42 ± 0.05 ×10^−2 cm·min^−1 | 0.40 ± 0.03 ×10^−2 cm·min^−1 | 0.49 ± 0.03 ×10^−2 cm·min^−1 | 0.40 ± 0.22 ×10^−2 cm·min^−1 | 0.26 ± 0.15 ×10^−2 cm·min^−1 | Papp [1, 11]: 0.45 ± 0.18 ×10^−2 cm·min^−1; Papp [1, 12]: > 0.0012 cm/min |
